This assay relates to MV4-11 cells. Description: Cell proliferation assay MV4;11 (CellTiter-Glo, 72 hours). The conditions noted are these: Homo sapiens; MV4;11 leukemia cell line, 72 hours; read-out: MV4; 11 IC50. The assay is classed as cell-based. Put shortly: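 Luminescent CellTiter-Glo readout after 72 h culture, 37 °C, 5% CO2, expressed relative to vehicle-treated wells, with maximal inhibition taken at the highest dose. MLL-rearranged MV4-11 leukemia cells; final compound range 0.632 to 2000 nM in eight steps.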

Molecules are shown by their SMILES.

On to `CC(C)N(C(=O)c1cc(F)ccc1Oc1cncnc1N1CC2(CCN(C[C@@H]3CC[C@@H](NS(=O)(=O)N4CCC4)CO3)CC2)C1)[C@H]1CCOC1` [Example 134, 2-((4-(7-(((2S,5R)-5-(Azetidine-1-sulfonamido)tetrahydro-2H-pyran-2-yl)methyl)-2,7-diazaspiro[3.5]nonan-2-yl)pyrimidin-5-yl)oxy)-5-fluoro-N-isopropyl-N-((S)-tetrahydrofuran-3-yl)benzamide], for which the IC50 was under 100 nM. Next, `CC(C)N(CCC#N)C(=O)c1cc(F)ccc1Oc1cncnc1N1CC2(CCN(C[C@@H]3CC[C@@H](NS(=O)(=O)c4ccccc4)CO3)CC2)C1` [Example 136, N-(2-Cyanoethyl)-5-fluoro-N-isopropyl-2-((4-(7-(((2S,5R)-5-(phenylsulfonamido)tetrahydro-2H-pyran-2-yl)methyl)-2,7-diazaspiro[3.5]nonan-2-yl)pyrimidin-5-yl)oxy)benzamide]: under 100 nM; `CC(C)N(C)C(=O)c1cc(F)ccc1Oc1cncnc1N1CC2(CCN(C[C@@H]3CC[C@@H](NS(=O)(=O)N(C)C)CO3)CC2)C1` [Example 137, 2-((4-(7-(((2S,5R)-5-((N,N-Dimethylsulfamoyl)amino)tetrahydro-2H-pyran-2-yl)methyl)-2,7-diazaspiro[3.5]nonan-2-yl)pyrimidin-5-yl)oxy)-5-fluoro-N-isopropyl-N-methylbenzamide]: under 100 nM. Next, `CC(C)N(C)C(=O)c1cc(F)ccc1Oc1cncnc1N1CC2(CCN(C[C@@H]3CC[C@@H](NS(=O)(=O)N4CCC4)CO3)CC2)C1` [Example 138, 2-((4-(7-(((2S,5R)-5-(Azetidine-1-sulfonamido)tetrahydro-2H-pyran-2-yl)methyl)-2,7-diazaspiro[3.5]nonan-2-yl)pyrimidin-5-yl)oxy)-5-fluoro-N-isopropyl-N-methylbenzamide]: under 100 nM. Next, `CCN(C(=O)c1cc(F)ccc1Oc1cncnc1N1CC2(CCN(C[C@@H]3CC[C@@H](NS(=O)(=O)N(C)CC)CO3)CC2)C1)C(C)C` [Example 140, N-Ethyl-2-((4-(7-(((2S,5R)-5-((N-ethyl-N-methylsulfamoyl)amino)tetrahydro-2H-pyran-2-yl)methyl)-2,7-diazaspiro[3.5]nonan-2-yl)pyrimidin-5-yl)oxy)-5-fluoro-N-isopropylbenzamide]: under 100 nM; `CCNS(=O)(=O)N[C@@H]1CC[C@@H](CN2CCC3(CC2)CN(c2ncncc2Oc2ccc(F)cc2C(=O)N(CC)C(C)C)C3)OC1` [Example 141, N-Ethyl-2-((4-(7-(((2S,5R)-5-((N-ethylsulfamoyl)amino)tetrahydro-2H-pyran-2-yl)methyl)-2,7-diazaspiro[3.5]nonan-2-yl)pyrimidin-5-yl)oxy)-5-fluoro-N-isopropylbenzamide]: under 100 nM; `CCN(C(=O)c1cc(F)ccc1Oc1cncnc1N1CC2(CCN(C[C@@H]3CC[C@@H](NS(=O)(=O)NC4CC4)CO3)CC2)C1)C(C)C` [Example 142, 2-((4-(7-(((2S,5R)-5-((N-Cyclopropylsulfamoyl)amino)tetrahydro-2H-pyran-2-yl)methyl)-2,7-diazaspiro[3.5]nonan-2-yl)pyrimidin-5-yl)oxy)-N-ethyl-5-fluoro-N-isopropylbenzamide]: under 100 nM.

For `CNS(=O)(=O)N[C@@H]1CC[C@@H](CN2CCC3(CC2)CN(c2ncncc2Oc2ccc(F)cc2C(=O)N(C(C)C)C(C)C)C3)OC1` [Example 143, 5-Fluoro-N,N-diisopropyl-2-((4-(7-(((2S,5R)-5-((N-methylsulfamoyl)amino)tetrahydro-2H-pyran-2-yl)methyl)-2,7-diazaspiro[3.5]nonan-2-yl)pyrimidin-5-yl)oxy)benzamide], the IC50 is under 100 nM.

On to `CCNS(=O)(=O)N[C@@H]1CC[C@@H](CN2CCC3(CC2)CN(c2ncncc2Oc2ccc(F)cc2C(=O)N(C(C)C)C(C)C)C3)OC1` [Example 144, 2-((4-(7-(((2S,5R)-5-((N-Ethylsulfamoyl)amino)tetrahydro-2H-pyran-2-yl)methyl)-2,7-diazaspiro[3.5]nonan-2-yl)pyrimidin-5-yl)oxy)-5-fluoro-N,N-diisopropylbenzamide], for which the IC50 is under 100 nM.

The values above are taken from patent US11919901B2 (Syndax Pharmaceuticals, Inc., priority 2021, dated 2024).
